# Experimental data reported in PubChem BioAssay (NCI).
# “And” between values parts separate entries of the source, which are not always exact repeats. Identical values can stand only once.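 Step 1: Grow cells in 96-well plates. Step 2: Expose to compound for 48 hours at 5 concentrations. Step 3: Interpolate endpoints linearly; if unreached, use highest concentration. GI50: concentration for 50% inhibition of growth. TGI: concentration producing complete growth inhibition.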
# Tests used:
# Assay in all cases: NCI tumour cell line growth inhibition, 48 h
# 786-0 renal = tested on: 786-0 renal
# A498 renal = tested on: A498 renal
# HL-60(TB) leukemia = tested on: HL-60(TB) leukemia
# HT29 colon = tested on: HT29 colon
# NCI-H226 lung = tested on: NCI-H226 lung
# NCI-H460 lung = tested on: NCI-H460 lung
# RXF 393 renal = tested on: RXF 393 renal
# SK-MEL-28 melanoma = tested on: SK-MEL-28 melanoma
# SNB-75 CNS = tested on: SNB-75 CNS
# TK-10 renal = tested on: TK-10 renal
SMILES,GI50 (786-0 renal) [µM],TGI (786-0 renal),GI50 (A498 renal) [µM],TGI (A498 renal),GI50 (HL-60(TB) leukemia) [µM],GI50 (HT29 colon) [µM],TGI (HT29 colon),GI50 (NCI-H226 lung) [µM],TGI (NCI-H226 lung),GI50 (NCI-H460 lung) [µM],TGI (NCI-H460 lung) [µM],GI50 (RXF 393 renal) [µM],TGI (RXF 393 renal),GI50 (SK-MEL-28 melanoma) [µM],TGI (SK-MEL-28 melanoma),GI50 (SNB-75 CNS) [µM],TGI (SNB-75 CNS),GI50 (TK-10 renal) [µM],TGI (TK-10 renal),TGI (HL-60(TB) leukemia) [µM]
C[As](C)SCC(COC(=O)C(Cl)c1ccccc1)OC(=O)C(Cl)c1ccccc1 (stereo not given),0.884,8.05 µM,4.34,17.2 µM,0.418,0.754,> 100 µM,20.1,41.8 µM,9.03,33.6,0.641,15 µM,10.6,28.1 µM,10.6,42.6 µM,0.222,1.58 µM,–
Oc1ccc2ccccc2c1N=Nc1ccsc1,–,> 100 µM,–,> 100 µM,–,–,> 100 µM,–,> 100 µM,–,> 100,–,> 100 µM,–,> 100 µM,–,> 100 µM,–,> 100 µM,> 100
C[C@]12CC/C(=N\O)C=C1CC[C@@H]1C2CC[C@@]2(C)C1CC[C@@H]2OC1CCCCO1 (stereo not given in full),–,33.3 µM,–,> 100 µM,–,–,28.8 µM,–,–,–,45.7,–,50.5 µM,–,42.4 µM,–,33.2 µM,–,42.2 µM,–
CO/N=C(\C)c1ccc(Nc2cc(-c3ccccc3)nc3ccc(OC)cc23)cc1,2.17,4.5 µM,–,–,–,5.33,> 100 µM,2.25,5.63 µM,6.69,> 100,–,–,29.4,> 100 µM,23,> 100 µM,2.52,6.85 µM,–
C/C(=N\NS(=O)(=O)c1ccc(C)cc1)P(=O)(O)O,–,> 100 µM,–,> 100 µM,–,–,> 100 µM,–,> 100 µM,–,> 100,–,> 100 µM,–,> 100 µM,–,> 100 µM,–,> 100 µM,–
Cn1cnc([N+](=O)[O-])c1Sc1nccn1-c1cccc2ccccc12,–,> 100 µM,–,> 100 µM,–,–,88.1 µM,–,59.6 µM,–,73.1,–,–,–,67.8 µM,–,87.5 µM,–,> 100 µM,–
Cc1ccc(S(=O)(=O)NC2(C=O)CCCC3CCCCC32)cc1 (stereo not given),–,> 100 µM,–,> 100 µM,–,–,–,–,> 100 µM,–,> 100,–,> 100 µM,–,> 100 µM,–,> 100 µM,–,> 100 µM,> 100
CC(=O)C1C(c2ccc(N(C)C)cc2)c2cc3c(cc2OC1(C)O)OCO3 (stereo not given),–,> 100 µM,–,–,–,–,58.5 µM,–,–,–,> 100,–,> 100 µM,–,> 100 µM,–,68.2 µM,–,> 100 µM,58.2
O=C(Nc1ccc(Cl)c(Cl)c1)Nc1c(Oc2ccc(Cl)c(Cl)c2)ccc(Cl)c1S(=O)(=O)O,3.05,29.8 µM,1.53,6.26 µM,–,1.84,> 100 µM,3.91,> 100 µM,3.01,> 100,1.92,5.64 µM,4.05,> 100 µM,1.51,4.53 µM,–,–,–
S=C(Nc1ccc(-c2nc3ccccc3[nH]2)cc1)Nc1ccc(-c2nc3ccccc3[nH]2)cc1,89.7,> 100 µM,–,–,> 100,> 100,> 100 µM,39.2,> 100 µM,65,> 100,> 100,> 100 µM,> 100,> 100 µM,–,–,32.4,> 100 µM,> 100
COC(=O)c1cc(O)c2cc3c(cc2c1-c1cc(OC)c(OC)c(OC)c1)OCO3,6.23,> 100 µM,0.494,> 100 µM,–,–,–,5.12,> 100 µM,0.686,> 100,2.95,> 100 µM,5.34,> 100 µM,1.37,32 µM,2.16,> 100 µM,–
CN1C(=O)C2C3C=C4c5ccccc5N(c5ccccc5)C4(C2C1=O)[C@H]1C(=O)N(C)C(=O)[C@@H]31 (stereo not given in full),–,> 100 µM,–,> 100 µM,–,–,> 100 µM,–,> 100 µM,–,> 100,–,–,–,> 100 µM,–,> 100 µM,–,> 100 µM,> 100
CCOC(=O)N1CCC(=O)C(CNC23CC4CC(CC(C4)C2)C3)C1 (stereo not given),–,29.4 µM,–,> 100 µM,–,–,43.7 µM,–,> 100 µM,–,> 100,–,33.2 µM,–,32.1 µM,–,–,–,> 100 µM,> 100
CCC(=C/[C@H](C)C/C=C/C(C)=C/[C@@H](C)C(=O)[C@@H](C)[C@H](O)[C@@H](C)CC)/C=C/[C@@H]1OC(=O)C=C[C@H]1C,< 0.01,< 0.01 µM,< 0.01,< 0.01 µM,< 0.01,< 0.01,1.4 µM,< 0.01,0.0539 µM,–,–,< 0.01,< 0.01 µM,< 0.01,1.58 µM,< 0.01,< 0.0465 µM,< 0.01,1.52 µM,< 0.01
O=C(O)CCC(N=Cc1nc(-c2ccccc2)oc1O)C(=O)O (stereo not given),–,> 100 µM,–,> 100 µM,–,–,> 100 µM,–,> 100 µM,–,> 100,–,> 100 µM,–,> 100 µM,–,> 100 µM,–,> 100 µM,–
O=C(c1ccccc1)C1OC1c1ccc([N+](=O)[O-])cc1 (stereo not given),17.7,70.7 µM,18.8,53.1 µM,–,3.75,14.5 µM,18.1,60.1 µM,10,40.2,6.38,44.8 µM,24.8,> 100 µM,2.92,72.7 µM,6.1,50.8 µM,–
COc1ccc2ccccc2c1C1NC(=O)c2ccccc2N1 (stereo not given),–,> 38 µM,–,8.42 µM,–,–,–,–,13.4 µM,–,29.6,–,> 23.6 µM,–,> 100 µM,–,–,–,> 100 µM,0.877
O=c1[nH]c(=S)[nH]c2c1CN(CCCN1CCOCC1)CN2,–,> 100 µM,–,> 100 µM,–,–,> 100 µM,–,> 100 µM,–,87.2,–,–,–,> 100 µM,–,–,–,> 100 µM,–

SMILES,GI50 (786-0 renal) [µM],TGI (786-0 renal),GI50 (A498 renal) [µM],TGI (A498 renal),GI50 (HL-60(TB) leukemia) [µM],GI50 (HT29 colon) [µM],TGI (HT29 colon),GI50 (NCI-H226 lung) [µM],TGI (NCI-H226 lung),GI50 (NCI-H460 lung) [µM],TGI (NCI-H460 lung) [µM],GI50 (RXF 393 renal) [µM],TGI (RXF 393 renal),GI50 (SK-MEL-28 melanoma) [µM],TGI (SK-MEL-28 melanoma),GI50 (SNB-75 CNS) [µM],TGI (SNB-75 CNS),GI50 (TK-10 renal) [µM],TGI (TK-10 renal),TGI (HL-60(TB) leukemia) [µM]
C#CCSc1cc(Cl)c(C)cc1S(=O)(=O)Nc1nc2ccccc2o1,31.9,91.4 µM,33.4,87.1 µM,–,42.8,> 100 µM,57,> 100 µM,37.5,> 100,32.9,> 100 µM,54.7,> 100 µM,85.8,> 100 µM,48.5,> 100 µM,–
COC(=O)C(C(=O)OC)C1CCCC(=O)C1 (stereo not given),–,> 100 µM,–,> 100 µM,–,–,> 100 µM,–,–,–,> 100,–,> 100 µM,–,> 100 µM,–,> 100 µM,–,> 100 µM,> 100
Nc1nnnn1CCO,–,> 100 µM,–,> 100 µM,–,–,> 100 µM,–,> 100 µM,–,> 100,–,> 100 µM,–,> 100 µM,–,> 100 µM,–,> 100 µM,–
Cc1cccc(C)c1NC(=O)C1C(=O)N(c2c(C)cccc2C)C(=O)/C1=N\N (stereo not given),–,> 100 µM,–,> 100 µM,–,–,> 100 µM,–,> 100 µM,–,–,–,> 100 µM,–,> 100 µM,–,> 100 µM,–,> 100 µM,> 100
NC(=O)/N=C1/CCC2C3CCCC2C13,–,> 100 µM,–,–,–,–,> 100 µM,–,> 100 µM,–,> 100,–,> 100 µM,–,> 100 µM,–,> 100 µM,–,> 100 µM,> 100
CCN(CC)c1ccc(C(O)C2=CC(=O)c3ccccc3C2=O)cc1 (stereo not given),1.36,2.65 µM,2.36,8.35 µM,7.1,–,–,1.93,4.63 µM,10.8,> 32.4,–,–,1.21,2.6 µM,1.87,5.57 µM,1.51,3.16 µM,> 100
N=c1ccn(O)cc1/C=C1/C(=O)Nc2ccccc21,> 100,> 100 µM,> 100,> 100 µM,> 100,> 100,> 100 µM,> 100,> 100 µM,> 100,> 100,–,–,> 100,> 100 µM,> 100,> 100 µM,> 100,> 100 µM,> 100
CCOC(=O)c1cc2c(cc1Cl)SC(N(c1ccc(OC)cc1)S(=O)(=O)c1ccc(Cl)cc1)=NS2(=O)=O,62.2,> 100 µM,80.8,> 100 µM,36.6,29.4,> 100 µM,94.1,> 100 µM,37.3,> 100,–,–,20.8,59.9 µM,23.3,90.4 µM,38.4,> 100 µM,> 100
O=C(COc1cc(O)c2c(=O)cc(-c3ccccc3)oc2c1)Nc1ccccc1C(F)(F)F,2.01,4.15 µM,4.04,17.8 µM,> 100,6.48,> 100 µM,2.28,6.48 µM,2.59,6.68,2.21,6.34 µM,–,–,1.65,4.41 µM,1.88,3.71 µM,> 100
NCCOCCOCCNc1nc(-c2ccccc2)nc(N2CCN(c3ccccn3)CC2)n1,12.6,26 µM,3.91,18.4 µM,9.47,4.55,17.6 µM,17.1,32.3 µM,16.5,34.9,10.1,22.8 µM,3.9,13.8 µM,14.3,30.2 µM,–,–,26.5
Clc1ccc(-c2c3c(nn2-c2ccccn2)CCc2ccccc2-3)cc1Cl,85,> 100 µM,> 100,> 100 µM,–,46.3,> 100 µM,> 100,> 100 µM,> 100,> 100,94.6,> 100 µM,> 100,> 100 µM,67.6,> 100 µM,65.6,> 100 µM,–
CN(C)CCNC(=O)c1cccc(N(C)C(=O)c2ccccc2)c1[N+](=O)[O-],–,> 100 µM,–,> 100 µM,–,–,> 100 µM,–,> 100 µM,–,> 100,–,–,–,> 100 µM,–,> 100 µM,–,> 100 µM,> 100
Nc1nc2c(ncn2C2C=CC(CO)C2)c(=O)[nH]1 (stereo not given),–,> 100 µM,–,> 100 µM,–,–,> 100 µM,–,> 100 µM,–,> 100,–,> 100 µM,–,> 100 µM,–,> 100 µM,–,> 100 µM,–
CC(C)([NH-])CO.CC(C)([NH-])CO.[Cl][Cd][Cl],16.6,31.3 µM,–,–,26.9,28.8,67.1 µM,7.84,20.9 µM,11.3,24.6,–,–,16.5,30.1 µM,–,–,19.1,53.6 µM,55.8
Cc1ccc(NC(=O)CC2Sc3ccccc3NC2=O)c(C)c1 (stereo not given),–,26.5 µM,–,30.1 µM,–,–,–,–,33.5 µM,–,32.4,–,31 µM,–,75.9 µM,–,19.2 µM,–,50.9 µM,8.35
O=[P+](O)c1ccsc1,–,> 100 µM,–,> 100 µM,–,–,> 100 µM,–,–,–,> 100,–,> 100 µM,–,> 100 µM,–,–,–,> 100 µM,> 100
Oc1ccc(C(c2ccc(O)cc2)c2ccc(O)cc2)cc1,–,34.8 µM,–,34.5 µM,–,–,41.6 µM,–,67.3 µM,–,46.3,–,39.5 µM,–,45 µM,–,–,–,63.4 µM,41.5
CCC/C(=N\NC(=S)N1CC2CCC(CC2)C1)c1ccccn1,1.25,1.19 µM and 2.55 µM,0.263,2.06 µM and 1.61 µM,–,0.0244,1.65 µM and 2.51 µM,1.13,4.79 µM and 2.58 µM,–,0.927,0.0356,1.34 µM and 0.518 µM,0.0479,5.16 µM and 1.29 µM,0.595,3.21 µM and 2.18 µM,–,5.84 µM and 2.9 µM,–
